Source: patent US20100069341A1, “TETRAHYDRO-PYRANOPYRAZOLE CANNABINOID MODULATORS” (priority 2005, published 2010)
Read-outs that look alike come from different tables or passages of the source.

Legend:
Cannabinoid CB2 Receptor = biological target: T1, Cannabinoid CB2 Receptor (Homo sapiens, UniProt P34972); experiment: Binding assay, cannabinoid CB2 receptor ([3H]-CP-55,940 displacement, SK-N-MC cell membranes); conditions: test concentration of 0.2 μM; human CB2 in SK-N-MC membranes; read-out: Cannabinoid CB2 Receptor Binding, percent inhibition
T1 construct: expressed in transfected cells; semi-purified membrane pellet
Description: (§1) Binding Assay for CB1 or CB2 Agonists or Inverse Agonists
(§2) The human CB1 and CB2 receptors were stably expressed in SK-N-MC cells transfected with pcDNA3 CB-1 (human) or pcDNA3 CB-2 (human). The cells were grown in T-180 cell culture flasks under standard cell culture conditions at 37° C. in a 5% CO2 atmosphere. The cells were harvested by trysinization and homogenized in a homogenization buffer (10 mM Tris, 0.2 mM MgCl2, 5 mM KCl, with protease inhibitors aprotinin, leupeptin, pepstatin A and bacitracin) and centrifuged (2000 g). The supernatant was then centrifuged in 2M sucrose (31,300 g) to produce a semi-purified membrane pellet. The pellet was resuspended in homogenization and store at −80° C.
(§3) On the day of the assay, the pellet was thawed on ice and diluted in assay buffer (50 mM Tris-HCl, 5 mM MgCl2, 2.5 mM EDTA, 0.5 mg/mL fatty acid free bovine serum albumin, pH 7.5). The diluted membrane was added with buffer, test compound or standard and the radioligand [H]^3+-CP-55,940 (0.2 nM) to the wells of a 96-well polypropylene plate. Non-specific binding was measured in wells containing 10 uM WIN 55,212. The plate was covered and incubated for 90 minutes at 30° C. The contents were then aspirated onto a Packard Unifilter GF/C filter bottom plate prewet with 0.5% polyethyleneimine. The wells of the polypropylene plate were rinsed and aspirated seven times with a 0.9% saline-0.5% Tween 20 solution. The Unifilter plate was dried, a scintillation cocktail was added to each well and the counts representing binding were quantitated in a TopCount scintillation counter.
For compounds tested, an IC50 binding value was obtained from percent inhibition studies in which various test concentrations were used. The binding value (in μM) was calculated by linear regression. For compounds without an IC50 binding value, the percent inhibition (in %) was obtained at a test concentration of 0.2 μM.

Cannabinoid CB1 Receptor = biological target: T2, Cannabinoid CB1 Receptor (Homo sapiens, UniProt P21554); experiment: Binding assay, cannabinoid CB1 receptor ([3H]-CP-55,940 displacement, SK-N-MC cell membranes); conditions: for inhibition at 0.2 µM: read-out: Cannabinoid CB1 Receptor Binding, percent inhibition
T2 construct: expressed in transfected cells; semi-purified membrane pellet
Description: as §1, §2
as §3, with “The diluted membrane was added with buffer, test compound or standard and the radioligand [H]^3+-CP-55,940 (0.2 nM) to the wells of a 96-well polypropylene plate. Non-specific binding was measured in wells containing 10 uM WIN 55,212.” left out
For compounds tested, an IC50 binding value was obtained from percent inhibition studies in which various test concentrations were used. The binding value (in μM) was calculated by linear regression.

[1] = test concentration of 0.2 μM, human CB1 in SK-N-MC membranes

T2 sequence (P21554 whole entry): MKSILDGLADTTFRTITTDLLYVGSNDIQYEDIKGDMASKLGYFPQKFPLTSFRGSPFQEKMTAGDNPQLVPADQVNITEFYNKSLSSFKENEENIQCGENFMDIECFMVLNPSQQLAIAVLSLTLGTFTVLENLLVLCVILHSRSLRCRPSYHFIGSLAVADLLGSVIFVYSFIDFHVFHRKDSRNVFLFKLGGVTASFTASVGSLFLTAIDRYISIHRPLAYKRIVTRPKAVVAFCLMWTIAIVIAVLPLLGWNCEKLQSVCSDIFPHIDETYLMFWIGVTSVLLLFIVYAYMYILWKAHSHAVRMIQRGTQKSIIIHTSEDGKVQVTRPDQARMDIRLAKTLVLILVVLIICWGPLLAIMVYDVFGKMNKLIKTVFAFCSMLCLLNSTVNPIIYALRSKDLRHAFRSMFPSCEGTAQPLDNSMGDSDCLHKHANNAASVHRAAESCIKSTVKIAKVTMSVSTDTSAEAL
T1 sequence (P34972 whole entry): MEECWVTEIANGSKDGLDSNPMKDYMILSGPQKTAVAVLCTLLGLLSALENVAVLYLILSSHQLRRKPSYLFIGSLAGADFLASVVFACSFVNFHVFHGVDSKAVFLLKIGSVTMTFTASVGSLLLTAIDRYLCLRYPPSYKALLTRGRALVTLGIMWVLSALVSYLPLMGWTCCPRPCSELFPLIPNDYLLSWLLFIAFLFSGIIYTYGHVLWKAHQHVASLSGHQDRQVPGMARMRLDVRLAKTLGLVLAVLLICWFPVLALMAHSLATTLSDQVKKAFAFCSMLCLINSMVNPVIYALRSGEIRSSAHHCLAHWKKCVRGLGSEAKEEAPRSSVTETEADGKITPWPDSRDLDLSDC

Row | Structure (SMILES) | inhibition at 0.2 µM (Cannabinoid CB2 Receptor) | IC50 (Cannabinoid CB1 Receptor) | inhibition at 0.2 µM (Cannabinoid CB1 Receptor; [1]) | inhibition at 0.2 µM (Cannabinoid CB1 Receptor)
1 | C[C@@H](NC(=O)c1nn(-c2ccc(Cl)cc2Cl)c2c1COC/C2=C\c1cccs1)C1CCCCC1 [Cpd 33, (7Z)-1-(2,4-dichloro-phenyl)-7-thiophen-2-ylmethylene-1,4,6,7-tetrahydro-pyrano[4,3-c]pyrazole-3-carboxylic acid [(R)-1-cyclohexyl-ethyl]-amide] | 15% | 10 nM | 88% | 
2 | O=C(NN1CCCC1)c1nn(-c2ccc(Cl)cc2Cl)c2c1COC/C2=C\c1cccs1 [Cpd 34, (7Z)-1-(2,4-dichloro-phenyl)-7-thiophen-2-ylmethylene-1,4,6,7-tetrahydro-pyrano[4,3-c]pyrazole-3-carboxylic acid pyrrolidin-1-ylamide] | 7% |  | 54% | 
3 | O=C(NN1CCCCC1)c1nn(-c2ccc(Cl)cc2Cl)c2c1COC/C2=C\c1cccs1 [Cpd 35, (7Z)-1-(2,4-dichloro-phenyl)-7-thiophen-2-ylmethylene-1,4,6,7-tetrahydro-pyrano[4,3-c]pyrazole-3-carboxylic acid piperidin-1-ylamide] | 12% |  | 68% | 
4 | O=C(NN1CCCCCC1)c1nn(-c2ccc(Cl)cc2Cl)c2c1COC/C2=C\c1cccs1 [Cpd 36, (7Z)-1-(2,4-dichloro-phenyl)-7-thiophen-2-ylmethylene-1,4,6,7-tetrahydro-pyrano[4,3-c]pyrazole-3-carboxylic acid azepan-1-ylamide] | 16% | 20 nM | 84% | 
5 | CC1CCCC(C)N1NC(=O)c1nn(-c2ccc(Cl)cc2Cl)c2c1COC/C2=C\c1cccs1 (stereo not drawn) [Cpd 37, (7Z)-1-(2,4-dichloro-phenyl)-7-thiophen-2-ylmethylene-1,4,6,7-tetrahydro-pyrano[4,3-c]pyrazole-3-carboxylic acid (2,6-dimethyl-piperidin-1-yl)-amide] | 20% |  | 61% | 
6 | O=C(NN1CC2CCCC2C1)c1nn(-c2ccc(Cl)cc2Cl)c2c1COC/C2=C\c1cccs1 (stereo not drawn) [Cpd 38, (7Z)-1-(2,4-dichloro-phenyl)-7-thiophen-2-ylmethylene-1,4,6,7-tetrahydro-pyrano[4,3-c]pyrazole-3-carboxylic acid (hexahydro-cyclopenta[c]pyrrol-2-yl)-amide] | 16% | 30 nM | 79% | 
7 | C[C@@H](NC(=O)c1nn(-c2ccc(Cl)cc2Cl)c2c1COC/C2=C\c1ccsc1)C1CCCCC1 [Cpd 39, (7Z)-1-(2,4-dichloro-phenyl)-7-thiophen-3-ylmethylene-1,4,6,7-tetrahydro-pyrano[4,3-c]pyrazole-3-carboxylic acid [(R)-1-cyclohexyl-ethyl]-amide] | 13% | 20 nM |  | 84%
8 | C[C@@H](NC(=O)c1nn(-c2ccc(Cl)cc2Cl)c2c1COC/C2=C\c1ccsc1)c1ccccc1 [Cpd 40, (7Z)-1-(2,4-dichloro-phenyl)-7-thiophen-3-ylmethylene-1,4,6,7-tetrahydro-pyrano[4,3-c]pyrazole-3-carboxylic acid [(R)-1-phenyl-ethyl]-amide] | 21% | 10 nM |  | 84%
9 | C[C@H](NC(=O)c1nn(-c2ccc(Cl)cc2Cl)c2c1COC/C2=C\c1ccsc1)C1CCCCC1 [Cpd 41, (7Z)-1-(2,4-dichloro-phenyl)-7-thiophen-3-ylmethylene-1,4,6,7-tetrahydro-pyrano[4,3-c]pyrazole-3-carboxylic acid [(S)-1-cyclohexyl-ethyl]-amide] | 21% |  |  | 56%
10 | C[C@H](NC(=O)c1nn(-c2ccc(Cl)cc2Cl)c2c1COC/C2=C\c1ccsc1)c1ccccc1 [Cpd 42, (7Z)-1-(2,4-dichloro-phenyl)-7-thiophen-3-ylmethylene-1,4,6,7-tetrahydro-pyrano[4,3-c]pyrazole-3-carboxylic acid [(S)-1-phenyl-ethyl]-amide] | 16% |  |  | 57%
11 | O=C(NN1CCCCC1)c1nn(-c2ccc(Cl)cc2Cl)c2c1COC/C2=C\c1ccsc1 [Cpd 43, (7Z)-1-(2,4-dichloro-phenyl)-7-thiophen-3-ylmethylene-1,4,6,7-tetrahydro-pyrano[4,3-c]pyrazole-3-carboxylic acid piperidin-1-ylamide] | 19% | 30 nM | 83% | 
12 | O=C(NN1CCCCCC1)c1nn(-c2ccc(Cl)cc2Cl)c2c1COC/C2=C\c1ccsc1 [Cpd 44, (7Z)-1-(2,4-dichloro-phenyl)-7-thiophen-3-ylmethylene-1,4,6,7-tetrahydro-pyrano[4,3-c]pyrazole-3-carboxylic acid azepan-1-ylamide] | 16% | 20 nM | 86% | 
13 | O=C(NN1CC2CCCC2C1)c1nn(-c2ccc(Cl)cc2Cl)c2c1COC/C2=C\c1ccsc1 (stereo not drawn) [Cpd 45, (7Z)-1-(2,4-dichloro-phenyl)-7-thiophen-3-ylmethylene-1,4,6,7-tetrahydro-pyrano[4,3-c]pyrazole-3-carboxylic acid (hexahydro-cyclopenta[c]pyrrol-2-yl)-amide] | 19% | 20 nM | 84% | 
14 | CC1CCCC(C)N1NC(=O)c1nn(-c2ccc(Cl)cc2Cl)c2c1COC/C2=C\c1ccsc1 (stereo not drawn) [Cpd 46, (7Z)-1-(2,4-dichloro-phenyl)-7-thiophen-3-ylmethylene-1,4,6,7-tetrahydro-pyrano[4,3-c]pyrazole-3-carboxylic acid (2,6-dimethyl-piperidin-1-yl)-amide] | 20% |  | 68% | 
15 | O=C(NN1CCCC1)c1nn(-c2ccc(Cl)cc2Cl)c2c1COC/C2=C\c1ccsc1 [Cpd 47, (7Z)-1-(2,4-dichloro-phenyl)-7-thiophen-3-ylmethylene-1,4,6,7-tetrahydro-pyrano[4,3-c]pyrazole-3-carboxylic acid pyrrolidin-1-ylamide] | 9% | 30 nM | 70% | 
16 | O=C(N[C@H](CO)c1ccccc1)c1nn(-c2ccc(Cl)cc2Cl)c2c1COC/C2=C\c1ccsc1 [Cpd 48, (7Z)-1-(2,4-dichloro-phenyl)-7-thiophen-3-ylmethylene-1,4,6,7-tetrahydro-pyrano[4,3-c]pyrazole-3-carboxylic acid [(1S)-2-hydroxy-1-phenyl-ethyl]-amide] | 17% |  | 36% | 
17 | C[C@@H](NC(=O)c1nn(-c2ccc(Cl)cc2Cl)c2c1COC/C2=C\c1ccc(Cl)s1)c1ccccc1 [Cpd 49, (7Z)-7-(5-chloro-thiophen-2-ylmethylene)-1-(2,4-dichloro-phenyl)-1,4,6,7-tetrahydro-pyrano[4,3-c]pyrazole-3-carboxylic acid [(R)-1-phenyl-ethyl]-amide] | 10% | 20 nM | 84% | 
18 | C[C@H](NC(=O)c1nn(-c2ccc(Cl)cc2Cl)c2c1COC/C2=C\c1ccc(Cl)s1)C1CCCCC1 [Cpd 50, (7Z)-7-(5-chloro-thiophen-2-ylmethylene)-1-(2,4-dichloro-phenyl)-1,4,6,7-tetrahydro-pyrano[4,3-c]pyrazole-3-carboxylic acid [(S)-1-cyclohexyl-ethyl]-amide] | 2% |  | 34% | 
19 | C[C@H](NC(=O)c1nn(-c2ccc(Cl)cc2Cl)c2c1COC/C2=C\c1ccc(Cl)s1)c1ccccc1 [Cpd 51, (7Z)-7-(5-chloro-thiophen-2-ylmethylene)-1-(2,4-dichloro-phenyl)-1,4,6,7-tetrahydro-pyrano[4,3-c]pyrazole-3-carboxylic acid [(S)-1-phenyl-ethyl]-amide] | 15% |  | 48% | 
20 | C[C@@H](NC(=O)c1nn(-c2ccc(Cl)cc2Cl)c2c1COC/C2=C\c1ccc(Cl)s1)C1CCCCC1 [Cpd 52, (7Z)-7-(5-chloro-thiophen-2-ylmethylene)-1-(2,4-dichloro-phenyl)-1,4,6,7-tetrahydro-pyrano[4,3-c]pyrazole-3-carboxylic acid [(R)-1-cyclohexyl-ethyl]-amide] | 21% | 9 nM | 88% | 
